Source: article PMC3765824, “Trough colistin plasma level is an independent risk factor for nephrotoxicity: a prospective observational cohort study” (BMC Infectious Diseases, 2013)
Read-outs that look alike come from different tables or passages of the source. Bridge positions count the residues as written; N and C are the ends. Square brackets hold non-standard residues; d marks the D form. Peptide text beside a SMILES is read from it. * marks the point of attachment. X1 = CC[C@H](C)CCCCC(=O)*; Dab = NCC[C@H](N)C(=O)O

Legend:
[1] = system: patients receiving intravenous colistin methanesulfonate sodium (CMS); assay: 30-day all-cause mortality; format: in vivo; conditions: 102 patients on iv CMS
Source text: Data on demographic characteristics including age, gender, body weight, size, and body mass index were collected. Data on the indication for CMS, the administration schedule, the daily CMS dose recorded as millions of IU, the total cumulative CMS dose (millions of IU), and the duration of treatment were collected. Other data recorded included the presence of CKD at baseline, the Charlson score, the severity of disease at the time of the first CMS dose stratified according to the Acute Physiology and the Chronic Health Evaluation (APACHE) II [16]. The concomitant use of aminoglycosides, vancomycin, angiotensin II receptor blockers, angiotensin-converting enzyme inhibitors, loop diuretics, intravenous dye, amphotericin B, non-steroidal anti-inflammatory drugs (NSAIDs), the need for vasopressor drugs, and discontinuation of CMS treatment because of AKI were also recorded. The patient’s clinical status at the beginning of CMS treatment was defined as infection, severe sepsis and shock, according to the standard definition. Clinical response was defined as the resolution of signs, symptoms, and laboratory parameters that defined infection for each patient. The 30-day all-cause mortality was also recorded. […]

[2] = system: infections caused by MDR-GNB; assay: Clinical response to CMS treatment; format: in vivo, patients
Protocol: (§1) This prospective observational study was performed at a 400-bed acute-care university hospital in Barcelona, Spain. A pharmacy-generated alarm system was used to identify patients on CMS treatment for therapy of infections caused by MDR-GNB. From January 2010 to June 2011, patients (>18 years) were included if they had received colistin methanesulfonate sodium (CMS) for at least 4 days. Patients were excluded if they were receiving renal replacement therapy prior to the initiation of CMS.
Data on demographic characteristics including age, gender, body weight, size, and body mass index were collected. Data on the indication for CMS, the administration schedule, the daily CMS dose recorded as millions of IU, the total cumulative CMS dose (millions of IU), and the duration of treatment were collected. Other data recorded included the presence of CKD at baseline, the Charlson score, the severity of disease at the time of the first CMS dose stratified according to the Acute Physiology and the Chronic Health Evaluation (APACHE) II [16]. The concomitant use of aminoglycosides, vancomycin, angiotensin II receptor blockers, angiotensin-converting enzyme inhibitors, loop diuretics, intravenous dye, amphotericin B, non-steroidal anti-inflammatory drugs (NSAIDs), the need for vasopressor drugs, and discontinuation of CMS treatment because of AKI were also recorded. The patient’s clinical status at the beginning of CMS treatment was defined as infection, severe sepsis and shock, according to the standard definition. Clinical response was defined as the resolution of signs, symptoms, and laboratory parameters that defined infection for each patient. The 30-day all-cause mortality was also recorded.

[3] = system: patients receiving intravenous colistin methanesulfonate sodium (CMS); assay: Colistin-associated nephrotoxicity: AKI by RIFLE criteria during CMS treatment; format: in vivo; conditions: for N° (%) of patients fulfilling criterion: ESKD (E) / N° (%) of patients fulfilling criterion: Failure (F) / N° (%) of patients fulfilling criterion: Injury (I) / N° (%) of patients fulfilling criterion: Loss (L) / N° (%) of patients fulfilling criterion: No injury / N° (%) of patients fulfilling criterion: Risk (R): RIFLE
Protocol: as §1
CMS for injection was used and dosed in millions of international units (IU) throughout the study. The drug was administered intravenously in 100 mL normal saline over 30 minutes in the commercially available colistimethate formulation for injection (GES Genéricos Españoles ®), with each vial containing 80 mg CMS (equivalent to 1 million international units of CMS). Dose selection was based on the individual criteria of the responsible clinicians, who were not aware that this study was being performed. Although there were some dose adjustments based on baseline renal function, common colistin doses ranged from 1 to 3 million international units (IU) every 8 hours (3–9 million IU daily). Dose adjustments were made according to the package insert’s recommended dosing as follows: GFR ≥ 76 mL/min/1.73 m^2, 4–6 million IU daily in three doses; GFR 40 to 75 mL/min/1.73 m^2, 2–3 million IU daily in 2 doses; GFR 25 to 40 mL/min/1.73 m^2, 1.5-2 million IU daily divided in 1 or 2 doses and; GFR < 25 mL/min/1.73 m^2 , 0.6-1 million of IU daily every 36 hours.
Serum creatinine level and estimated glomerular filtration rate (GFR) were recorded at baseline, on day 7 and at the end of treatment (EOT). We chose these set points because blood tests are done routinely for all inpatients at least once a week and at the end of treatment. The abbreviated Modification of Diet in the Renal Disease Equation (MDRD-4) was used to calculate GFR. Chronic kidney disease (CKD) at baseline was considered if GFR was < 60 mL/min/1.73 m^2 for ≥ 3 months. Patients with increased creatinine (> 1.4 mg/dL) or GFR < 90 mL/min/1.73 m^2 at admission and no prior data regarding chronicity were considered as having acute renal failure due to any cause. The RIFLE criteria (risk, injury, failure, loss, and end-stage kidney disease), estimated with exclusion of the urinary output criterion, were used for detection and stratification of AKI [14] (Table 1). AKI during CMS treatment was defined as a 1.5-fold or more increase in serum creatinine and/or a decrease in the GFR of 25% or more. These criteria needed to be fulfilled for at least 2 consecutive determinations 24 hours apart, after ≥ 4 days of CMS therapy. Patients who developed AKI were followed up for a period of 30 days after the end of CMS treatment to evaluate the reversibility of this toxicity. Patients who died or had no data during this period were excluded from this analysis.
Multivariate analysis of risk factors for colistin nephrotoxicity was constructed by using logistic regression. Univariate analyses were performed separately for each of the risk factor variables to ascertain the odds ratio and 95% confidence interval (CI). All clinically important covariates and those with a P value < 0.2 in the univariate analyses were included in the multivariate analysis. Since Cmax and Cmin values were almost equal, only one of these variables was included in the model.
The ROC curve was used to identify a categorical breakpoint for Cmin that would better identify patients who develop acute kidney injury (AKI) on day 7 and at the end of treatment. For all analyses, a two-sided P value < 0.05 was considered to be statistically significant. The Statistical Package for the Social Sciences (SPSS, version 15.0) was used for statistical analysis.

[4] = Colistin plasma concentrations at steady state (HPLC); format: in vivo, patients; conditions: human; for Cmax: intravenous; for level at 72 h: iv
Protocol: Evaluation of the colistin concentration in plasma was performed after 3 days of treatment, when the colistin concentrations had reached steady state. The samples were immediately centrifuged (3000 g for 10 minutes) and the plasma was stored at −80°C until analysis. Colistin plasma trough concentrations (Cmin) were measured just before the next dose. Maximum plasma concentrations (Cmax) were taken 30 minutes after the end of the CMS infusion (1 h after the start of infusion).
Colistin concentrations in plasma were determined using a validated high-performance liquid chromatography (HPLC) method as described by Li et al., with minor modifications. After protein precipitation, the samples were centrifuged (14000 g, 5 min) and the supernatant transferred to solid phase extraction (SPE) C18 cartridges (Sep-Pak, Waters, Milford, MA, USA), in which derivation with 9-fluorenylmethyl chloroformate (FMOC-Cl) was performed. Elution of the fluorescence derivatives was performed with acetone mixed with acetonitrile and boric acid. Finally, 20 μl of the mixture was injected into the HPLC. The HPLC system was made up of Waters equipment that included a Waters 2475 multi-λ Fluorescence Detector, a Waters 1525 binary pump with column heater, a Waters degasser, and a Waters 717 autoinjector sampler. The stationary phase was a Waters SunFire column C18, 4.6 × […], 5 μm. The mobile phase was a mixture of acetonitrile, tetrahydrofuran and water delivered at an isocratic flux of 1 mL/min. The chromatogram run time was 20 minutes and the detector setting was excitation wavelength 260 nm and emission wavelength 315 nm. The concentrations of colistin were calculated by multiplying the obtained colistin sulfate plasma concentrations by 1163/1403 (1163 being the average molecular weight of colistin A and B, which are the greater part of the products, and 1403 the average molecular weight of colistin sulfate). The colistin plasma concentration in each patient was calculated as the sum of colistin A and B, the two main components. Calibration curves were linear in the range 0.1-8 mcg/ml and the accuracy quality control samples varied from 90–110 % of the nominal concentration for intraday and interday analysis, with a precision (CV%) of 10% or less. The limit of quantification was 0.1 mcg/ml and the limit of detection was 0.05 mcg/mL.

[5] = % of the 26 patients with nephrotoxicity at day 7
[6] = End of treatment, multivariate logistic regression

colistin methanesulfonate sodium [CMS]
30-day all-cause mortality rate [1]: 32.4%
Clinical response ([2]; CMS 1 million IU/8 h (n = 28)): 25 (89.3) n (%)
Clinical response ([2]; CMS 2 million IU/8 h (n = 42)): 32 (76.2) n (%)
Clinical response ([2]; CMS 3 million IU/8 h (n = 16)): 11 (68.8) n (%)
Clinical response ([2]; CMS other doses (n = 16)): 11 (68.8) n (%)
Clinical response ([2]; all included patients n=102): 79 (77.5) n (%)
Patients who developed AKI needing renal replacement therapy ([3]; 53 patients with AKI): None
Nephrotoxicity at day 7: F (Failure) [3, 5]: 2 (7.6) n (%)
Nephrotoxicity at day 7: I (Injury) [3, 5]: 8 (30.7) n (%)
Nephrotoxicity at day 7: R (Risk) [3, 5]: 16 (61.5) n (%)
Nephrotoxicity at the end of treatment: I (Injury) ([3]; % of the 50 patients with nephrotoxicity at EOT): 23(46) n (%)
AKI at EOT ([3]; CMS 1 million IU/8 h (n = 28)): 14 (50) n (%)
AKI at day 7 ([3]; CMS 1 million IU/8 h (n = 28)): 5 (17.9) n (%)
AKI at EOT ([3]; CMS 2 million IU/8 h (n = 42)): 21 (50) n (%)
AKI at day 7 ([3]; CMS 2 million IU/8 h (n = 42)): 11 (26.2) n (%)
AKI at EOT ([3]; CMS 3 million IU/8 h (n = 16)): 9 (56.3) n (%)
AKI at day 7 ([3]; CMS 3 million IU/8 h (n = 16)): 7 (43.8) n (%)
AKI at EOT ([3]; CMS other doses (n = 16)): 6 (37.5) n (%)
AKI at day 7 ([3]; CMS other doses (n = 16)): 3 (18.8) n (%)
N° (%) of patients fulfilling criterion: ESKD (E) ([3]; Day 7 (n = 102)): 0 (0) N° (%)
N° (%) of patients fulfilling criterion: Failure (F) ([3]; Day 7 (n = 102)): 2 (2) N° (%)
N° (%) of patients fulfilling criterion: Injury (I) ([3]; Day 7 (n = 102)): 8 (7.8) N° (%)
N° (%) of patients fulfilling criterion: Loss (L) ([3]; Day 7 (n = 102)): 0 (0) N° (%)
N° (%) of patients fulfilling criterion: No injury ([3]; Day 7 (n = 102)): 76 (74.5) N° (%)
N° (%) of patients fulfilling criterion: Risk (R) ([3]; Day 7 (n = 102)): 16 (15.7) N° (%)
Odds ratio (95% CI) of CMS cumulative dose at day 7 for nephrotoxicity ([3]; Day 7, multivariate logistic regression): 0.99 (0.94-1.04)
N° (%) of patients fulfilling criterion: ESKD (E) ([3]; EOT (n = 102)): 0 (0) N° (%)
N° (%) of patients fulfilling criterion: Failure (F) ([3]; EOT (n = 102)): 13 (12.7) N° (%)
N° (%) of patients fulfilling criterion: Injury (I) ([3]; EOT (n = 102)): 23 (22.5) N° (%)
N° (%) of patients fulfilling criterion: Loss (L) ([3]; EOT (n = 102)): 0 (0) N° (%)
N° (%) of patients fulfilling criterion: No injury ([3]; EOT (n = 102)): 52 (51) N° (%)
N° (%) of patients fulfilling criterion: Risk (R) ([3]; EOT (n = 102)): 14 (13.7) N° (%)
Odds ratio (95% CI) of CMS cumulative dose for nephrotoxicity [3, 6]: 0.99 (0.98-1)
Odds ratio (95% CI) of CMS duration treatment for nephrotoxicity [3, 6]: 1.03 (0.98-1.08)
Patients with nephrotoxicity at day 7 ([3]; n=102, RIFLE criteria): 26 (25.5) n (%)
Patients with nephrotoxicity at the end of treatment ([3]; n=102, RIFLE criteria): 50 (49) n (%)

CC[C@H](C)CCCCC(=O)N[C@@H](CCN)C(=O)N[C@H](C(=O)N[C@@H](CCN)C(=O)N[C@H]1CCNC(=O)[C@H]([C@@H](C)O)NC(=O)[C@H](CCN)NC(=O)[C@H](CCN)NC(=O)[C@H](CC(C)C)NC(=O)[C@@H](CC(C)C)NC(=O)[C@H](CCN)NC1=O)[C@@H](C)O [colistin] (X1-[Dab]T[Dab][Dab][Dab][dL]L[Dab][Dab]T; lactam 4-C)
Cmax ([4]; 1 million IU/8 h, CMS 1 million IU/8 h (n = 28), steady state, 30 min after infusion, median (interquartile range), read-out: Cmax): 650 ng/mL
Cmax ([4]; 2 million IU/8 h, CMS 2 million IU/8 h (n = 42), steady state, 30 min after infusion, median (interquartile range), read-out: Cmax): 1130 ng/mL
Cmax ([4]; 3 million IU/8 h, CMS 3 million IU/8 h (n = 16), steady state, 30 min after infusion, median (interquartile range), read-out: Cmax): 1840 ng/mL
Cmax ([4]; CMS other doses (n = 16), steady state, 30 min after infusion, median (interquartile range), read-out: Cmax): 1500 ng/mL
Cmax ([4]; first value of pair, taken as patients without acute renal failure at baseline, read-out: Peak colistin plasma level): 1000 ng/mL
Cmax ([4]; second value of pair, taken as patients with acute renal failure at baseline, read-out: Peak colistin plasma level): 1820 ng/mL
level at 72 h ([4]; 1 million IU/8 h, CMS 1 million IU/8 h (n = 28), steady state trough, median (interquartile range), read-out: Cmin): 710 ng/mL
level at 72 h ([4]; 2 million IU/8 h, CMS 2 million IU/8 h (n = 42), steady state trough, median (interquartile range), read-out: Cmin): 1140 ng/mL
level at 72 h ([4]; 3 million IU/8 h, CMS 3 million IU/8 h (n = 16), steady state trough, median (interquartile range), read-out: Cmin): 1840 ng/mL
level at 72 h ([4]; CMS other doses (n = 16), steady state trough, median (interquartile range), read-out: Cmin): 1500 ng/mL
level at 72 h ([4]; first value of pair, taken as patients without acute renal failure at baseline, read-out: Trough colistin plasma level): 860 ng/mL
level at 72 h ([4]; second value of pair, taken as patients with acute renal failure at baseline, read-out: Trough colistin plasma level): 1790 ng/mL
